Test results as given in patent US20050032149A1, “Enzyme catalyzed isotope labeling” (priority 2003, published 2005).

Tests used:
α-chymotrypsin = target: T1, α-chymotrypsin (Bos taurus, UniProt P00766); test: Chymotryptic digestion of apomyoglobin in H2 18O, 18O2-coding of peptides; type: biochemical, Bovine; settings: apomyoglobin 51 nmol, 200 μg α-chymotrypsin, H2 18O pH 8.0, room temperature
T1 construct: purchased Sigma (St. Louis, Mo.); host or cells: bovine pancreas
Procedure: Chymotryptic Digestion of Apomyoglobin in H2^18O. An apomyglobin (51 nmol) suspension in H2^18O (24 mM Tris/HCl, pH 8.0) was incubated with 200 μg of α-chymotrypsin (bovine pancreas, Sigma) at room temperature. Aliquots were taken at different time intervals for MALDI-FT-ICR analysis.
MALDI-FT-ICR Mass Spectrometric Analysis. Reaction mixtures in H2^18O were diluted with 70:30 acetonitrile:water (0.1% TFA) to obtain a final peptide concentration of about 10 pmol/μl. A 0.6 μL aliquot of this solution was applied on the MALDI stainless steel probe followed by 0.6 μL of a solution of 2,5-dihydroxybezoic acid (500 mM) in 70:30 acetonitrile:water (0.1% TFA). The mixture was gently stirred during the crystallization. An FT-ICR instrument equipped with a 4.7 T actively shielded magnet (lonspec Co., Irvine, Calif.) was used for this study. An external MALDI ion source was differentially pumped. A pulsed (5 ns width) Nd:YAG laser (Minilite, Contimuum, Inc., Santa Clara, Calif.) was operated at 355 nm (triple of its fundamental frequency). The laser energy was attenuated by adjusting the angle between two Glan-laser prism polarizers (Karl-Lambrecht Co., Chicago, Ill.). Ions were injected into the ICR cylindrical cell by an RF-only quadrupole ion guide. A 4 ms nitrogen pulse was used to trap the ions and remove their excess of kinetic energy. After a 4 s delay, the ions were excited by a 35 Vb-p RF sweep during 4 ms (29-180 kHz). The image signal was amplified and digitized at an acquisition rate of 2 MHz (512 k data point) resulting in the recording of a 262.1 ms time domain, which gave a typical mass resolution of 10 000. […] In mass spectra, heights for the monoisotope peaks for peptides, the peaks with masses 2 Da higher, and the peaks with masses 4 Da higher were measured as peak intensities I0, I2, and I4, respectively.
Exchange Reactions Catalyzed by Chymotrypsin. Chymotryptic proteolysis of apomyoglobin in H2^18O was analyzed by MALDI-FT-ICR. […]

trypsin [1] = target: T2, trypsin (Sus scrofa, UniProt P00761); test: Control experiment: non-Arg/Lys-terminated peptides incubated with trypsin in H2 18O; type: biochemical; settings: mixture VEPIPY 710 μM and YGGFM 500 μM, 200 mM Tris, 2 μg trypsin, H2 18O pH 8.5, room temperature overnight
T2 construct: purchased Promega (Madison, Wis.)
T2 sequence (P00761 9-231): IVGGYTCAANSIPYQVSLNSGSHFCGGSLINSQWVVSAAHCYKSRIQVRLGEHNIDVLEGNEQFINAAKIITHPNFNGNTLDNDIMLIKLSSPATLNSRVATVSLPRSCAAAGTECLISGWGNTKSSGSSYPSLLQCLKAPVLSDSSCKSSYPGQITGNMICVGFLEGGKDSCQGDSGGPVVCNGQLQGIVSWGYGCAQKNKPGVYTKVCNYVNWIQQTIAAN
Procedure: For the process of ^18O2-coding of Arg- and Lys-terminated peptides through two exchange reactions, a sequential mechanism (FIG. 7) is supported by the kinetics shown in FIG. 5. Trypsin-catalyzed exchange reactions are substrate-specific; only peptides with Arg or Lys in the P1 position can undergo exchanges catalyzed by trypsin. As a control experiment, a mixture of VEPIPY (710 μM) and YGGFM (500 μM) was incubated with 200 mM Tris and 2 μg trypsin in H2^18O (pH 8.5) at room-temperature overnight. […] Thus, there was not significant catalysis from either the enzyme or the buffer.

trypsin [2] = target: T2, trypsin; test: Kinetics of 16O-to-18O exchange of YGGFMK and YGGFMR catalyzed by trypsin (MALDI-FT-ICR-MS); type: biochemical
Procedure: Kinetics Measurement of ^16O-to-^18O Exchange of YGGFMK and YGGFMR Catalyzed by Trypsin. […] Aliquots of the reaction mixture were taken at different time intervals for the first 10% of reactant conversion. The reaction temperature was maintained at 26±1° C., and the ionic strength was controlled by NaCl (45 mM). The reaction volume was typically 20 μL. The change of the peak intensity for the peptide was monitored by MALDI-FT-ICR-MS. Substrate concentrations used in the kinetics studies ranged between 0.2 KM and 5 KM, and measurements were duplicated for each substrate concentration. At high concentrations (>10 mM) of YGGFMK, acetonitrile (10% v/v) was used to increase the substrate solubility in reaction buffer. A full course of ^16O-to-^18O exchange reaction of YGGFMR was also recorded using similar conditions.
MALDI-FT-ICR Mass Spectrometric Analysis. Reaction mixtures in H2^18O were diluted with 70:30 acetonitrile:water (0.1% TFA) to obtain a final peptide concentration of about 10 pmol/μl. A 0.6 μL aliquot of this solution was applied on the MALDI stainless steel probe followed by 0.6 μL of a solution of 2,5-dihydroxybezoic acid (500 mM) in 70:30 acetonitrile:water (0.1% TFA). The mixture was gently stirred during the crystallization. An FT-ICR instrument equipped with a 4.7 T actively shielded magnet (lonspec Co., Irvine, Calif.) was used for this study. An external MALDI ion source was differentially pumped. A pulsed (5 ns width) Nd:YAG laser (Minilite, Contimuum, Inc., Santa Clara, Calif.) was operated at 355 nm (triple of its fundamental frequency). The laser energy was attenuated by adjusting the angle between two Glan-laser prism polarizers (Karl-Lambrecht Co., Chicago, Ill.). Ions were injected into the ICR cylindrical cell by an RF-only quadrupole ion guide. A 4 ms nitrogen pulse was used to trap the ions and remove their excess of kinetic energy. After a 4 s delay, the ions were excited by a 35 Vb-p RF sweep during 4 ms (29-180 kHz). The image signal was amplified and digitized at an acquisition rate of 2 MHz (512 k data point) resulting in the recording of a 262.1 ms time domain, which gave a typical mass resolution of 10 000. The average of single time domain transients (more than 10 times) was Fourier transformed into the corresponding frequency domain (two zero fills and Blackman apodization).
MALDI-FT-ICR Mass Spectrometric Analysis of ^16O-to-^18O Exchange Reactions. […] The residual ^16O content in H2^18O (less than 5%) was not considered in formulation of the equation.
Kinetic Constants for ^16O-to-^18O Exchange of YGGFMK and YGGFMR Catalyzed by Trypsin. […] The time course for the first 10% of the reaction was limited to less than 30 min by adjusting the concentration of trypsin.
From the plots, values for kcat's, KM's, and kcat/KM's were calculated.

[3] = trypsin-catalyzed 16O-to-18O exchange, double reciprocal plot, pH 8.0, 26±1° C.

Substance: GADAQGAMTKALELF [CT9, Chymotryptic peptide of apomyoglobin]
- time to complete 18O2-coding (α-chymotrypsin): 20 h

Substance: RNDIMKY [CT10, Chymotryptic peptide of apomyoglobin]
- time to complete 18O2-coding (α-chymotrypsin): 1.5 h

Substance: TGHPETLEKF [CT4, Chymotryptic peptide of apomyoglobin]
- time to complete 18O2-coding (α-chymotrypsin): 3.5 h

Substance: VEPIPY
- exchange of oxygens (trypsin [1]): No detectable exchange of oxygens

Substance: YGGFM
- exchange of oxygens (trypsin [1]): No detectable exchange of oxygens

Substance: YGGFMK
- Km (trypsin [2]; [3]): 4400 ± 700 µM
- kcat (trypsin [2]; [3]): 2800 ± 300 min⁻¹
- Km (trypsin [2]; trypsin-catalyzed exchange): 4400 µM
- kcat (trypsin [2]; trypsin-catalyzed exchange): 2800+−300 per min

Substance: YGGFMR
- Km (trypsin [2]; [3]): 1300 ± 300 µM
- kcat (trypsin [2]; [3]): 3500 ± 500 min⁻¹
- Km (trypsin [2]; trypsin-catalyzed exchange): 1300 µM
- kcat (trypsin [2]; trypsin-catalyzed exchange): 3500+−500 per min
